Molecular target: T1, Neutrophil elastase (Homo sapiens, UniProt P08246)
T1 sequence (P08246 whole entry): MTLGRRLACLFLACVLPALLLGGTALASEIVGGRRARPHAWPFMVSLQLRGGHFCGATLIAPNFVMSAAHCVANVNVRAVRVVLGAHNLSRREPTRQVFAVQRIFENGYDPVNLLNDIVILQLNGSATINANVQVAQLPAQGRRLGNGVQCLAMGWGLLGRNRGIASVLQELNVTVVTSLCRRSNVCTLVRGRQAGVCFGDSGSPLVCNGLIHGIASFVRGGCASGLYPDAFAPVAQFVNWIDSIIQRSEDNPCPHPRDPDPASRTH
Experiment: Enzyme Kinetic Assay
Conditions: 25 °C
Procedure: The inhibition of the HLE was studied at 25°C by continuously monitoring the absorbance at 410 nm for 20 min of a solution prepared by mixing 10 μL of HLE stock solution (2 μM in 0.05M acetate buffer, pH 5.5) with a solution containing 10 μL of 5 in DMSO, 20 μL of MeOSuc-Ala-Ala-Pro-Val-p-NA (50 mM in DMSO) and 960 μL of 0.1M pH 7.2 HEPES buffer. Control assays, in which the inhibitor was omitted, ran linearly.

## CCC1(CC)C(=O)N(c2ccc(CS(=O)(=O)c3ccccc3)cc2)C1=O [4-oxo-β-lactam (3)]
  Ki: 0.63 nM

Reference: BindingDB's records for doi:10.3109/14756366.2010.486794 (University of Lisbon, 2011)
